Tested on: Metabolic Syndrome cases
Assay: Clinical study in Metabolic Syndrome cases
Assay type: in vivo, human
Description: The study population consisted of 128 diagnosed Metabolic Syndrome cases (76 Men and 52 Women), aged 52.81±9.68 years at study entry. The cases were diagnosed as per criteria given by WHO for classification and diagnosis of Metabolic Syndrome. After preliminary screening the subjects showing association with 3 or more than 3 above factors were selected. The clinical trial was conducted in three groups— Group-I: 36 cases were treated with Orlistat (120 mg twice a day after each meals). Group-II: 44 cases were treated with Ayurvedic formulation. Group-III: 48 cases were administered Orlistat along with Ayurvedic formulation. […] Lipid profile including triglyceride was estimated by standard laboratory kits. TNF-[…], interleukin-6 was measured by ELISA kit, adiponectin by radioimmunoassay kit. CRP by kit for quantitative nephelometric determination of CRP in human serum or plasma by Turbox/Turbox analyzer and ELISA activity assay kit for Leptin level. Subjects suffering from any other disease known to affect the study parameters were excluded from the series. Upon recruitment all subjects gave informed written consent.

With `CCCCCCCCCCC[C@@H](C[C@@H]1OC(=O)[C@H]1CCCCCC)OC(=O)[C@H](CC(C)C)NC=O` [Conventional drug, Orlistat] the Adiponectin (After 6 months) was 10.04 ± 2.84 µg/mL, the “Apolipo (B)” value (After 6 months) was 156.41 ± 17.11 mg/dL and the Diastolic blood pressure (After 6 months) was 84.42 ± 1.98 mmHg. It also gave an Endotheline (After 6 months) of 875.42 ± 171.36 pg/mL, a Fasting blood glucose (After 6 months) of 99.43 ± 4.36 mg/dL and an HDL-c (After 6 months) of 50.75 ± 3.12 mg/dL. It also gave an Interleukin-6 (After 6 months) of 1.89 ± 0.75 pg/mL, an LDL-c (After 6 months) of 109.42 ± 8.44 mg/dL and a Leptin (After 6 months) of 26.44 ± 3.28 µg/L. For the same compound, the Postprandial blood glucose (After 6 months) was 186.90 ± 17.42 mg/dL, the Systolic blood pressure (After 6 months) was 126.90 ± 4.06 mmHg and the TNF-α (After 6 months) was 324.85 ± 57.86 pg/mL. For the same compound, the Total cholesterol (After 6 months) was 208.91 ± 27.97 mg/dL, the Triglycerides (After 6 months) was 224.56 ± 37.90 mg/dL and the “hs CRP” value (After 6 months) was 3.48 ± 0.89 mg/L. The “Body Mass Index (BMI)” value (Female, After 3 months) was 29.68 ± 2.04, the “Body Mass Index (BMI)” value (Female, After 6 months) was 28.45 ± 1.68 and the “Body Mass Index (BMI)” value (Female, Initial) was 31.14 ± 1.88. For the same compound, the Adiponectin (Initial) was 7.82 ± 1.64 µg/mL, the “Apolipo (B)” value (Initial) was 193.88 ± 31.64 mg/dL and the Diastolic blood pressure (Initial) was 88.35 ± 2.06 mmHg. It also gave an Endotheline (Initial) of 1139.73 ± 211.54 pg/mL, a Fasting blood glucose (Initial) of 133.90 ± 8.82 mg/dL and an HDL-c (Initial) of 43.84 ± 2.42 mg/dL. It also gave an Interleukin-6 (Initial) of 2.35 ± 0.84 pg/mL, an LDL-c (Initial) of 143.71 ± 9.13 mg/dL and a Leptin (Initial) of 33.41 ± 4.35 µg/L. It also gave a Postprandial blood glucose (Initial) of 224.81 ± 20.14 mg/dL, a Systolic blood pressure (Initial) of 137.82 ± 5.15 mmHg and a TNF-α (Initial) of 579.84 ± 68.36 pg/mL. The Total cholesterol (Initial) was 243.84 ± 41.52 mg/dL, the Triglycerides (Initial) was 371.90 ± 43.88 mg/dL and the “hs CRP” value (Initial) was 5.31 ± 1.04 mg/L. For the same compound, the “Body Mass Index (BMI)” value (Male, After 3 months) was 28.82 ± 1.90, the “Body Mass Index (BMI)” value (Male, After 6 months) was 27.16 ± 1.35 and the “Body Mass Index (BMI)” value (Male, Initial) was 30.75 ± 2.17.

Source: patent US9642886B2, “Plant based formulation for the prevention and management of metabolic syndrome by its adiponectin enhancing property” (SRM UNIVERSITY, priority 2014, dated 2017)
